The record followed here is patent US4447455A, “Oral urolithiasis remedy” (Madaus and Company, priority 1982, dated 1984).

“Also recorded” adds a separate entry of the source.

Data set [1] relates to edema of the paws of rats. The data set is described as follows: anti-inflammatory action: edema of the paws induced by viscarin-carrageenin. It is filed as in vivo, rat. To be noted: AMDK 600 mg/kg p.o.; for Edema volume: 10 animals. The procedure:
The possibility of any effect on inflammatory reactions was tested on edema of the paws of rats (groups of ten rats each) induced by viscarin-carrageenin. […] The measurement of the course of the edema was performed at 3, 5, 7 and 24 hours after the edematization. […] Where the variances between the experimental and control groups were unequal, the more rigorous t test (according to SNEDECOR) was applied for the judgment.

A short description of data set [2]: in vitro crystallization of calcium oxalate.
Another data set deals with oxalate urolithiasis. The data set is described as follows: therapeutic use in oxalate urolithiasis (general statements). It is filed as in vivo, human. To be noted: general statement.
Data set [3] is described as follows: acute toxicity / tolerability in the rat. It is filed as in vivo. To be noted: alizarin, up to 400 mg/kg.
Data set [4] is described as follows: acute toxicity / tolerability in the mouse. Format: in vivo. Particulars: alizarin, one gram per kilogram.
Data set [5] can be described thus: overall summary of pharmacological and toxicological tests. Format: in vivo.

For Sodium escinate, the “Percentage of inhibition (edema)” value came out at 41.4 Percentage in data set [1] (3 hours after edematization), 37.2 Percentage in data set [1] (5 hours after edematization), 39.1 Percentage in data set [1] (7 hours after edematization) and 40.9 Percentage in data set [1] (24 hours after edematization). Further, the Edema volume in data set [1] (3 hours after edematization) was 46.5 mL; in data set [1] (5 hours after edematization) it was 50.7 mL; in data set [1] (7 hours after edematization) it was 46.6 mL; in data set [1] (24 hours after edematization), 14.9 mL.
`O=C1c2ccccc2C(=O)c2c1ccc(O)c2O` [alizarin]: in data set [2], the “action on the crystallization of calcium oxalate” value is on record as “inhibiting action on the crystallization of calcium oxalate”. Also, in the data set with oxalate urolithiasis, the “effect on the formation of stones” value is “decided inhibitive effect on the formation of stones”, the “effectiveness in treatment of urolithiasis” value is recorded as “decidedly effective” and the tolerance entry is on record as “easily tolerated; also recorded: very well tolerated”. Moreover, the “tolerance of acute administration” value in data set [3] is “tolerated without producing symptoms”. For the same compound, the “tolerance of acute administration” value in data set [4] is given as “tolerated without producing symptoms”. Also, the “tolerance in the acute toxicity test” value in data set [5] is “extremely well tolerated”.
